Results taken from PubChem BioAssay (NCI).
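Five compound concentrations were applied to cells in 96-well plates for 48 hours; endpoints were derived by simple linear interpolation of the resulting dose-response curve. Abbreviation: GI50, concentration required for 50% inhibition of growth. TGI: concentration producing complete growth inhibition.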

Tests used:
Experiment in all cases: NCI-60 cell line screen, 48 h
HCT-15 colon = test system: HCT-15 colon
HL-60(TB) leukemia = test system: HL-60(TB) leukemia
MCF7 breast = test system: MCF7 breast
MDA-MB-435 = test system: MDA-MB-435
NCI-H226 lung = test system: NCI-H226 lung
OVCAR-3 ovarian = test system: OVCAR-3 ovarian
RPMI-8226 leukemia = test system: RPMI-8226 leukemia
RXF 393 renal = test system: RXF 393 renal
SF-539 CNS = test system: SF-539 CNS
SK-MEL-2 melanoma = test system: SK-MEL-2 melanoma

SMILES	TGI (HCT-15 colon) [µM]	TGI (HL-60(TB) leukemia) [µM]	TGI (MCF7 breast) [µM]	TGI (MDA-MB-435) [µM]	TGI (NCI-H226 lung) [µM]	GI50 (OVCAR-3 ovarian) [µM]	TGI (OVCAR-3 ovarian) [µM]	TGI (RPMI-8226 leukemia) [µM]	TGI (RXF 393 renal) [µM]	TGI (SF-539 CNS) [µM]	TGI (SK-MEL-2 melanoma) [µM]	GI50 (HCT-15 colon) [µM]	GI50 (HL-60(TB) leukemia) [µM]	GI50 (MCF7 breast) [µM]	GI50 (MDA-MB-435) [µM]	GI50 (RPMI-8226 leukemia) [µM]
CCOc1cc2c(c(OCC)c1O)CC[C@@H]1[C@@H]2CC[C@]2(C)[C@@H](O)CC[C@@H]12	14	1.86	53.2	3.05	> 100	0.0896	3.08	31.1	17.1	6.71	83.7	–	–	–	–	–
CC(=O)N(C(C)=O)c1cc2c3c(c1)CCCN3CCC2	> 10	> 10	> 10	> 10	> 10	–	> 10	> 10	> 10	> 10	> 10	–	–	–	–	–
Cc1ccc(N(C)S(=O)(=O)c2ccccc2[N+](=O)[O-])cc1	> 100	> 100	> 100	> 100	> 100	–	> 100	> 100	> 100	> 100	> 100	–	–	–	–	–
O=c1cc(-c2cccnc2)[nH]c2cc3c(cc12)OCO3	> 64.3	31.9	> 100	4.6	> 89.6	–	> 20.7	> 100	> 96.3	17.7	> 100	–	–	–	–	–
CC1(C)N=C(C2CCCN2C(=O)OCc2ccccc2)OC1=O (stereo unspecified)	> 100	> 100	> 100	> 100	> 100	–	> 100	> 100	85.1	> 100	> 100	–	–	–	–	–
CCOC(=O)c1c(NC(=S)Nc2ccccc2)sc2c1CCOC2	> 100	> 100	> 100	> 100	> 100	–	> 100	> 100	> 100	> 100	> 100	–	–	–	–	–
O=C1CC(=O)NC(=NNS(=O)(=O)c2ccc(Cl)cc2)N1	> 100	> 100	> 100	> 100	> 100	–	> 100	> 100	> 100	> 100	> 100	–	–	–	–	–
CCO/C=N/C1=C(C#N)SC2=N/C(=C\c3ccccc3)C(=O)N21	> 100	> 83.2	> 100	> 100	> 100	–	> 100	> 100	> 100	> 100	> 100	–	–	–	–	–
Cc1cc(S(=O)(=O)/N=C(\[N-]S(=O)(=O)c2cc(Cl)sc2Cl)[n+]2ccc(N(C)C)cc2)c(S)cc1Cl	> 100	> 100	> 100	> 100	> 100	–	> 100	> 100	> 100	> 100	> 100	–	–	–	–	–
COc1ccc(/C=C2\C[C@H]3[C@@H]4CCC5=CC(=O)CC[C@]5(C)[C@H]4CC[C@]3(C)C2=O)cc1OC	> 100	6.91	> 100	> 100	> 100	–	> 100	47.3	> 100	> 100	43.6	–	–	–	–	–
Cc1ccc(C(=O)N/N=C(\N=Nc2ccc(C(=O)O)cc2)c2ccc(N(CCC#N)CCC#N)cc2C)cc1	> 100	> 100	> 100	> 100	> 100	–	> 100	> 100	> 100	> 100	> 100	–	–	–	–	–
O=C(N/N=C/c1ccccc1)c1cccc2nc3ccccc3nc12	> 100	> 100	> 100	> 100	> 100	–	> 100	> 100	> 100	> 100	> 100	–	–	–	–	–
COc1cc(OC)c2[nH]c3c(O)c(-c4c(C)cc5c([nH]c6c(OC)cc(OC)cc65)c4O)c(C)cc3c2c1	16.9	10.5	18.9	24.9	17.6	–	18.6	23.7	16.8	16.8	17.4	8.28	2.82	8.68	12	10.5
O=C(c1ccccc1)N1C(=S)N(c2ccccn2)C(=Nc2ccccc2)C1=Nc1ccccc1	14.9	14.1	> 100	> 58	> 100	–	45.6	31.1	25.9	44.9	34.6	–	–	–	–	–
CCOP(=O)(OCC)OC1c2[nH]cc(C(=O)OCc3ccccc3)c2-c2cc(C(=O)OC)[nH]c2C1OC (stereo unspecified)	> 100	> 100	> 100	> 100	58.3	–	54.8	> 100	> 56.3	> 43.7	> 76.5	–	–	–	–	–
CC1=C(C(=O)N[C@@H](CC(C)C)C(=O)O)N2C(=O)[C@@H](NC(=O)C(N)c3ccccc3)[C@H]2SC1 (stereo partly specified)	> 100	> 100	> 100	> 100	> 100	–	> 100	> 100	> 100	> 100	> 100	–	–	–	–	–
